Measured values published in ChEMBL document CHEMBL5126645, “Cancer-Cell-Selective Targeting by Arylcyclopropylamine-Vorinostat Conjugates” (ACS Med Chem Lett, 2022).
Activity calls are given as the source filed them. No cut-off for these calls is given here.

Experiments:
MDA-MB-231 [1] = assay: cells; assay type: functional; conditions: Homo sapiens, MDA-MB-231, 72 h; time 3 day
Description: Antiproliferative activity against human MDA-MB-231 cells assessed as inhibition of cell growth incubated for 3 days by alamar blue assay

NCI-H526 = assay: cells; assay type: functional; conditions: Homo sapiens, NCI-H526, 72 h; time 3 day
Description: Antiproliferative activity against human NCI-H526 cells assessed as inhibition of cell growth incubated for 3 days by alamar blue assay

[2] = molecular target: Histone deacetylase 1 (Homo sapiens) (UniProt Q13547); assay: Inhibition of HDAC1 in human NCI-H526 cells assessed as increase in H3K4 methylation at 16 uM measured after 24 to 72 hrs by Western blot analysis; assay type: cell-based; conditions: time 24-72 hrs
Chain of Histone deacetylase 1 (Homo sapiens) (Q13547 whole entry): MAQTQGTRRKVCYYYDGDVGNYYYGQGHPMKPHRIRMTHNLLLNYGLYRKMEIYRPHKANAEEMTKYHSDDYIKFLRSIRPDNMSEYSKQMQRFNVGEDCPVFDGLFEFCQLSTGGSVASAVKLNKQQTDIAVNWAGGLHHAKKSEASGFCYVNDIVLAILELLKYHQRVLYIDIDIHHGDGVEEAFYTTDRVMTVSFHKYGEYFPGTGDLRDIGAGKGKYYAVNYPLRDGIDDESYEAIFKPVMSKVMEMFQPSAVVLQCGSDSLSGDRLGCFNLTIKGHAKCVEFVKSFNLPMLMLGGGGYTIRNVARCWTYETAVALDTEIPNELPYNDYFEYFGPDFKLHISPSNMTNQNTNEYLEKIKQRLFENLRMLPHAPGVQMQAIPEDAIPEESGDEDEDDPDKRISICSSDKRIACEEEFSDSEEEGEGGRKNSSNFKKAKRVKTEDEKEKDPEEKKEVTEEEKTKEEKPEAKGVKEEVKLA

[3] = molecular target: Histone deacetylase 1 (Homo sapiens) (UniProt Q13547); assay: Inhibition of HDAC1 in human NCI-H526 cells assessed as increase in H3K9 acetylation at 16 uM measured after 24 to 72 hrs by Western blot analysis; assay type: cell-based; conditions: time 24-72 hrs
[4] = molecular target: Histone deacetylase 1 (Homo sapiens) (UniProt Q13547); assay: Potency index, ratio of vorinostat IC50 to test compound IC50 for inhibition of HDAC1 human NCI-H526 cells measured after 24 to 72 hrs by Western blot analysis; assay type: cell-based; conditions: time 24-72 hrs
MDA-MB-231 [5] = assay: Synergistic antiproliferative activity against human MDA-MB-231 cells assessed as inhibition of cell growth incubated for 3 days in presence of LSD1 inhibitor, NCD38 by alamar blue assay; assay type: functional, cell-based; conditions: time 3.0 day
MDA-MB-231 [6] = assay: Synergistic antiproliferative activity against human MDA-MB-231 cells assessed as inhibition of cell growth incubated for 3 days in presence of vorinostat by alamar blue assay; assay type: functional, cell-based; conditions: time 3.0 day
MDA-MB-231 [7] = assay: Additive antiproliferative activity against human MDA-MB-231 cells assessed as inhibition of cell growth incubated for 3 days in presence of 4-(Chloromethyl)phenyl acetate by alamar blue assay; assay type: functional, cell-based; conditions: time 3.0 day
[8] = molecular target: T1, Lysine-specific histone demethylase 1A (Homo sapiens, UniProt O60341)
Description: Inhibition of LSD1 (unknown origin) using H3K4me2 peptide as substrate preincubated for 15 mins followed by substrate addition and measured after 30 mins by fluorescence based analysis

in vitro [9] = conditions: human, HMEC cells
Description: Cytotoxicity against HMEC cells assessed as inhibition of cell growth incubated for 3 days by alamar blue assay

in vitro [10] = conditions: human, HMEC cells versus MDA-MB-231 cells
Description: Selectivity index, ratio of IC50 for cytotoxicity against HMEC cells to GI50 for antiproliferative activity against human MDA-MB-231 cells

in vitro [11] = conditions: human, HMEC cells versus NCI-H526 cells
Description: Selectivity index, ratio of IC50 for cytotoxicity against HMEC cells to GI50 for antiproliferative activity against human NCI-H526 cells

[12] = Stability of compound in HEPES buffer at pH 7.4 at 100 uM incubated for 24 hrs by HPLC analysis; assay type: physicochemical; conditions: pH 7.4, 24 h
[13] = Stability of compound in buffer at pH 7.4; assay type: physicochemical
[14] = molecular target: T1, Lysine-specific histone demethylase 1A; assay: Potency index, ratio of phenylcyclopropylamine IC50 to test compound IC50 for inhibition of LSD1 (unknown origin) using H3K4me2 peptide as substrate preincubated for 15 mins followed by substrate addition and measured after 30 mins by fluorescence based analysis; conditions: time 45.0 min
[15] = molecular target: T1, Lysine-specific histone demethylase 1A; assay: Prodrug conversion assessed as LSD1 (unknown origin)-mediated vorinostat release incubated for 24 hrs by HPLC analysis; assay type: ADME

| Structure (SMILES) | GI50 (MDA-MB-231 [1]) [nM] | GI50 (NCI-H526) [nM] | IC50 [8] [nM] | IC50 at 3 days (in vitro [9]) [nM] | selectivity ratio (in vitro [10]) | further results |
| --- | --- | --- | --- | --- | --- | --- |
| CNC(=O)c1cccc(-c2ccc(C3CC3N(C)CCN(C)C(=O)Oc3ccc(CONC(=O)CCCCCCC(=O)Nc4ccccc4)cc3)cc2)c1 (racemic) | 4490 | 1000 | 126 | > 100000 | > 22.3 | inhibition [2]: Active; inhibition [3]: Active; Ratio IC50 [4]: 40; Activity (MDA-MB-231 [5]): Active; Activity (MDA-MB-231 [6]): Active; Activity (MDA-MB-231 [7]): Active; selectivity ratio (in vitro [11]): > 100 |
| CC(=O)Oc1ccc(CCl)cc1 | 2050 | 2020 |  |  |  |  |
| CNC(=O)c1cccc(-c2ccc([C@H]3C[C@@H]3N(C)CCN(C)C(=O)Oc3ccc(CONC(=O)CCCCCCC(=O)Nc4ccccc4)cc3)cc2)c1 |  |  | 457 |  |  |  |
| CN(CCN(C)C1CC1c1ccccc1)C(=O)ONC(=O)CCCCCCC(=O)Nc1ccccc1 (centres undefined) |  |  |  |  |  | Stability [12]: Unstable |
| CN(CCN(C)C1CC1c1ccccc1)C(=O)Oc1ccc(CONC(=O)CCCCCCC(=O)Nc2ccccc2)cc1 (centres undefined) | 34300 |  | 1290 | > 100000 | > 2.92 | Stability [13]: Stable; Ratio IC50 [14]: 19; Drug metabolism [15]: Metabolite_Detected |
| CNC(=O)c1cccc(-c2ccc([C@@H]3C[C@H]3N(C)CCN(C)C(=O)Oc3ccc(CONC(=O)CCCCCCC(=O)Nc4ccccc4)cc3)cc2)c1 |  |  | 444 |  |  |  |
